Data on one compound can be found in PubChem BioAssay AID651893 (Broad Institute, 2012).

The subject of this test is T. b. rhodesiense STIB900 proliferation, Alamar blue, 72 h. Kind of test: African trypanosome bloodstream form growth inhibition – STIB900 strain, plate reader, cherry pick, dose response (AID 651893).

For orientation: IC50 means the concentration at which inhibition is half-maximal.

In the case of `C[C@@H]1CN([C@@H](C)CO)C(=O)c2cccc(NC(=O)c3ccncc3)c2O[C@H]1CN(C)Cc1ccc(Oc2ccccc2)cc1`, the IC50 was 715 nM.
